Measurements as given in patent EP1063290A1, “NOVEL DICARBONYLREDUCTASE AND GENE ENCODING THE SAME” (TAISHO PHARMACEUTICAL CO., LTD, priority 1998, dated 1999).
Read-outs that look alike come from different tables or passages of the source. Blank lines part the entries; values can stand above or below the molecule they belong to.

Key:
protein hDCR1 = protein hDCR1 (Homo sapiens, UniProt Q7Z4W1); assay: Dicarbonyl reductase activity assay: substrate specificity (NAD(P)H oxidation at 340 nm); conditions: against a reference of 100 for diacetyl
Procedure: (§1) The enzyme activity assay method is not particularly restricted, and it may be based on the activity assay method for mouse carbonyl reductase (CR) (Eur. J. Biochem. 22, 381-387(1995)). The enzyme used here was an expressed recombinant enzyme. • (a) Substrate specificity: In order to determine the substrate specificity, there may be used a hydrocarbon system including various ketone, aldehyde and ester groups, or an aromatic compound.
(§2) The reaction mixture (total: 2.0 ml) comprised an 80 mM potassium phosphate solution (pH 7.0 or 6.0), 0.1 mM NADPH or NADH and a carbonyl substrate or enzyme (50 µl) (10.1 µg or 3.7 µg of hDCR1).
The oxidation rate for NAD(P)H was measured at 340 nm.
One unit of enzyme activity was defined as that which catalyzed oxidation of 1 µmol of NAD(P)H in one minute at 25°C.

[1] = test system: dicarbonyl reductase of the invention; assay: Substrate reactivity features summarised from Tables 1, 2 and 3; assay type: biochemical; conditions: summary in words of Tables 1, 2 and 3
protein DCR1 = protein DCR1 (Mus musculus, UniProt Q91X52); assay: Dicarbonyl reductase activity assay: substrate specificity and rate constants (NAD(P)H oxidation at 340 nm); conditions: for substrate ranking (smallest Km values, higher catalyst efficiency Vmax/Km): mouse enzyme, Table 2, result in words
Procedure: as §1
as §2, with “• (1) This was assayed under the following conditions. The” for “The”, “glomerin B). The oxidation rate for NAD(P)H was measured at 340 nm.” for “hDCR1).”

[2] = target: T1, dicarbonyl reductase of the invention (Mus musculus, UniProt Q91X52); assay: Effects of metal ions and inhibitors on residual enzyme activity; assay type: biochemical; conditions: after treating the enzyme with metals and inhibitors
T1 construct: made in house; host or cells: E. coli K12
Procedure: However, since one of their substrates, NADPH, is degraded at below pH 5, activity assay is not possible in that range when NADPH is used and the peak cannot be determined. The examples were therefore carried out at near pH 7, although the optimum pH is not limited to near 7. • (7) pH stability: For example, DCR1 and hDCR1 are incubated for 3 hours at 25°C in buffer solutions with different pH values, and the residual activity is then measured and compared and recorded as relative activity with respect to the value at pH 8.0 with no incubation. • (8) Effects of metal ions and inhibitors: After treating the enzyme with different metals and inhibitors, the residual activity was evaluated.

[3] = target: T2, hamster liver diacetyl reductase (Hamster DR) (Mesocricetus auratus, UniProt Q91XV4); assay: Inhibition of the enzyme reaction; assay type: biochemical; conditions: for inhibition at 100 µM / inhibition at 1000 µM: read-out: Inhibition (%) Hamster DR
T2 construct: from tissue; host or cells: hamster liver
Text: (§3) Two enzymes were used here, mouse DCR1 and hamster liver diacetyl reductase (Hamster DR).

mouse DCR1 = target: T3, mouse DCR1 (Mus musculus, UniProt Q91X52); assay: Inhibition of the enzyme reaction; assay type: biochemical
T3 construct: made in house; host or cells: E. coli K12
Text: as §3

[4] = substrate concentration 1,000 μM
[5] = substrate concentration 1,000 μM, against a reference of 100 for diacetyl
[6] = compound concentration 0.1 mM, read-out: Inhibition (%) CDR1
[7] = compound concentration 0.001 mM

Chain of protein DCR1 (Q91X52 whole entry): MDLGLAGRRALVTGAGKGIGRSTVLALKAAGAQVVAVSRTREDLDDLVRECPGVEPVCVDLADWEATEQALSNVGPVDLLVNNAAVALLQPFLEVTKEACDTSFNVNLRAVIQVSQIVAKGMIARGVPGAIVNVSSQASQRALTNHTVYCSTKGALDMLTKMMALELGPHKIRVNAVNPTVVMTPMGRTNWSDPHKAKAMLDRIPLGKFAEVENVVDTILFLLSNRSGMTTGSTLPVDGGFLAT
T3 sequence (Q91X52 whole entry): as above
T2 sequence (Q91XV4 whole entry): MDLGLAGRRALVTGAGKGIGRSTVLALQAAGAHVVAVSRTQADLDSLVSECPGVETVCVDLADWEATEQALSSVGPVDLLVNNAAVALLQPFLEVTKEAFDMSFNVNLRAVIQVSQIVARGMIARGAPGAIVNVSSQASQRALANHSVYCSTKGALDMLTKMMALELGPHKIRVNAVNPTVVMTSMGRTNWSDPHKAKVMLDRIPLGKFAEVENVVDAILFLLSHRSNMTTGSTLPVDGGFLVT
Chain of protein hDCR1 (Q7Z4W1 whole entry): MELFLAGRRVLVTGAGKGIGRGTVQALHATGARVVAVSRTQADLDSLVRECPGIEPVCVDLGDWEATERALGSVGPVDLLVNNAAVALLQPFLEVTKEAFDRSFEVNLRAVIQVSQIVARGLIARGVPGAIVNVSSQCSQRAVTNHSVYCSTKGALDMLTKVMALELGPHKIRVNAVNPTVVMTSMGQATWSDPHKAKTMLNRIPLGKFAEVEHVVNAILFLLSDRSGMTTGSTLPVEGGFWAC
T1 sequence (Q91X52 whole entry): as the sequence (Q91X52 whole entry) above

Molecule: O=C(CBr)C(=O)CBr [1,4-dibromo-2,3-butanedione]
RA (%) relative activity (protein hDCR1; [4]): 133% | reactivity (as substrate) [1]: strong reactivity

Molecule: CC(=O)C(=O)c1ccccc1 [1-Phenyl-1,2-propanedione]
RA (%) relative activity (protein hDCR1; [4]): 65% | reactivity (as substrate) [1]: strong reactivity | substrate ranking (smallest Km values, higher catalyst efficiency Vmax/Km) (protein DCR1): best substrates | RA (%) relative activity (protein DCR1; [5]): 148%

RA (%) relative activity (protein hDCR1; [4]): 174% | reactivity (as substrate) [1]: strong reactivity | RA (%) relative activity (protein DCR1; [5]): 134%
Molecule: CCCCC(=O)C(C)=O [2,3-Heptanedione]

RA (%) relative activity (protein hDCR1; [4]): 168% | reactivity (as substrate) [1]: strong reactivity | RA (%) relative activity (protein DCR1; [5]): 108%
Molecule: CCCC(=O)C(C)=O [2,3-Hexanedione]

Molecule: CCC(=O)C(C)=O [2,3-Pentanedione]
RA (%) relative activity (protein hDCR1; [4]): 167% | reactivity (as substrate) [1]: strong reactivity | RA (%) relative activity (protein DCR1): 163%

Molecule: CCC(=O)C(=O)CC [3,4-Hexanedione]
RA (%) relative activity (protein hDCR1; [4]): 170% | reactivity (as substrate) [1]: strong reactivity | substrate ranking (smallest Km values, higher catalyst efficiency Vmax/Km) (protein DCR1): best substrates | RA (%) relative activity (protein DCR1; [5]): 232%

Molecule: O=C1C(=O)c2cccc3cccc1c23 [Acenaphthenequinone]
RA (%) relative activity (protein hDCR1; substrate concentration 25 μM): 181% | reactivity (as substrate) [1]: strong reactivity | RA (%) relative activity (protein DCR1; substrate concentration 25 μM, against a reference of 100 for diacetyl): 14.1%

Molecule: [Ca+2].[Cl-].[Cl-] [CaCl2]
effect on the enzyme (residual activity) [2]: virtually no effect

inhibition at 100 µM ([3]; compound concentration 0.1 mM): 3% | inhibition at 100 µM (mouse DCR1; [6]): 0%
Molecule: C=C(CC)C(=O)c1ccc(OCC(=O)O)c(Cl)c1Cl [Ethacrynic acid]

RA (%) relative activity (protein hDCR1; substrate concentration 500 μM): 252% | reactivity (as substrate) [1]: strong reactivity | RA (%) relative activity (protein DCR1; substrate concentration 400 μM, against a reference of 100 for diacetyl): 106.7%
Molecule: O=C1Nc2ccccc2C1=O [Isatin]

inhibition at 1000 µM ([3]; compound concentration 1 mM): 50% | inhibition at 1000 µM (mouse DCR1; compound concentration 1 mM, read-out: Inhibition (%) CDR1): 16%
Molecule: CC(C)CN [Isobutylamine]

inhibition at 100 µM ([3]; compound concentration 0.1 mM): 4% | inhibition at 100 µM (mouse DCR1; [6]): 0%
Molecule: O=C(O)c1ccncc1 [Isonicotinic acid]

Molecule: [Cl-].[Cl-].[Mg+2] [MgCl2]
effect on the enzyme (residual activity) [2]: virtually no effect

inhibition at 10000 µM ([3]; compound concentration 10 mM): 5% | inhibition at 10000 µM (mouse DCR1; compound concentration 10 mM, read-out: Inhibition (%) CDR1): 29%
Molecule: c1cn[nH]c1 [Pyrazole]

inhibition at 100 µM ([3]; compound concentration 0.1 mM): 33% | inhibition at 100 µM (mouse DCR1; [6]): 50%
Molecule: O=c1c(O)c(-c2ccc(O)c(O)c2)oc2cc(O)cc(O)c12 [Quercitin]

Molecule: O=C(O)CC1(CC(=O)O)CCCC1 [Tetramethyleneglutaric acid]
inhibition at 100 µM [3]: 63% | inhibition at 100 µM (mouse DCR1; read-out: Inhibition (%) CDR1): 0%

Molecule: c1cnc2c(c1)ccc1cccnc12 [o-Phenanthroline]
inhibition at 1000 µM [3]: 0% | inhibition at 1000 µM (mouse DCR1; read-out: Inhibition (%) CDR1): 8%

Molecule: Cibacron blue dye
Inhibition (%) Hamster DR [3, 7]: 18% | Inhibition (%) CDR1 (mouse DCR1; [7]): 21%
